Publication PMC4912613, “A broad analysis of resistance development in the malaria parasite” (Nature Communications, 2016)
Where two headings read alike, the source gives them in different places.

What was measured:
[1] = test system: P. berghei exoerythrocytic forms; assay: Liver-stage P. berghei hepatocyte invasion and development assay (luminescence, HepG2); assay type: cell-based, Plasmodium berghei; settings: for EC50: HepG2, 48 h, P. berghei sporozoites, read-out: Liver Stage EC50; for EC50 fold shift compared to asexual stage: Liver Stage EC50: liver stage EC50 / 3D7 EC50
From the text: (§1) As drugs that eliminate multiple stages of the parasite lifecycle will be critical components in global efforts to eliminate malaria, we were interested in knowing whether the compounds in our study had additional activities against either the liver and/or transmission stages of the parasite lifecycle. To determine this, we first evaluated the compounds in additional phenotypic assays. The first assay was a P. berghei hepatocyte invasion and development assay, which predicts causal prophylactic activity. Hepatocyte toxicity was additionally tested to identify false-positive activity in the liver stage due to host-cell toxicity. Assays were executed in duplicate using a 12-point EC50 curve at starting concentrations of 5 μM or 50 μM (Supplementary Table 1).
(§2) Liver-stage activity was determined by pretreating hepatic human cells (HepG2) for 2 h with compound in 1,536-well plates infected with freshly dissected P. berghei sporozoites. After 48 h of incubation, the viability of P. berghei exoerythrocytic forms was measured by luminescence reaction light output using BrightGlo (Promega). Varying levels of compound concentration were used (5 μM or 50 μM) due to the stock concentration supplied.

[2] = test system: Stage 5 gametocytes from P. falciparum NF54; assay: Late-stage (stage V) gametocyte survival assay, MitoTracker; assay type: cell-based, Plasmodium falciparum; settings: for EC50: Plasmodium falciparum, P. falciparum NF54, 72 h, read-out: Stage 5 Gametocyte EC50; for EC50 fold shift compared to asexual stage: Stage 5 Gametocyte EC50: gametocyte EC50 / 3D7 EC50
Procedure: The second assay was a late-stage (stage V) gametocyte survival assay, which predicts transmission-blocking activity. […] Positive and negative control compounds included puromycin (0.61±0.11 μM) and atovaquone (> 12.50 μM), respectively.
To test sexual-stage activity, compounds were tested against late-stage gametocytes using a MitoTracker fluorescent-based assay. Specifically, synchronized stage V gametocytes were incubated with compound for 72 h. MitoTracker Red CMXRos (Life Technologies) was added to each well (final concentration: 500 nM) together with saponin to lyse the RBCs. Each plate was then imaged with an Operetta High Content Imaging System (Perkin Elmer) for fluorescence (590–640 nm). Varying levels of compound concentration were used (1.25 μM or 12.5 μM) due to the stock concentration supplied.
The gametocytocidal activity was measured using high-content image analysis software (Harmony, Perkin Elmer). The readout was based on number of metabolically active gametocytes per well.

[3] = test system: ATQ-R5 (cytb F267V, parent 3D7); assay: Cross-resistance EC50 assay, ATQ-R5; assay type: cell-based, Plasmodium falciparum; settings: for EC50: Plasmodium falciparum, 3D7, SYBR green 72 hour assay, asynchronized parasites, 96-well or 1536-well format, ATQ-R5
From the text: (§3) To evaluate potential overlapping activity against known antimalarial drug targets, we performed dose-response studies with each compound against our assembled set of drug-resistant lines and their corresponding parents, in an asexual blood stage proliferation assay (Table 1). Comparisons were made to the drug-sensitive strain 3D7 when a parent was unavailable (TM90C2A, W2 and Dd2). As laboratories conducted EC50 assays with different strains and protocols, all comparisons were made between assays from the same laboratory and under the same assay conditions. Compounds displaying >5-fold EC50 shifts relative to the parent or sensitive strain were flagged as having potentially non-novel targets. Average fold shifts per strain ranged from 0.82 to 2.34, with a median of 1.23 indicating there was not common resistance to any one resistant clone. No resistance patterns were observed when classifying the compounds based on chemical structure, but this was not surprising given the diversity of compounds chosen. On the other hand, given that these confirmed compounds were derived from larger unconfirmed hit lists to which some filtration criteria may have been applied (for example, elimination of obvious dihydrofolate reductase inhibitors[32]), some[10][11][12][13] pre-existing bias may exist in the set. […]
(§4) Alternatively, a SYBR Green-based proliferation approach was used for the 72-h assay, as previously described. Briefly, a culture of either synchronized or asynchronous parasitized RBCs (0.3% parasitemia and 4% haematocrit) in screening medium (identical to supplemented medium above except no serum was added) was exposed to serial drug dilutions. Plates were incubated at 37 °C and gassed with 93% N2, 4% CO2 and 3% O2 for 72 h. Following incubation, 10 × SYBR Green I (Invitrogen; supplied in 10,000 × concentration) in lysis buffer ([…], 5 mM EDTA, 0.16% Saponin wt per vol and 1.6% Triton X vol per vol) was added to the wells and the plates were incubated overnight at room temperature before plate reading. EC50 assays were repeated three times, taking the average EC50 value from each assay set, and removing any outliers using a single iteration of Grubbs' test, eliminating values with z-scores above the critical z-value (α=0.05). The raw EC50 values for synchronized parasites assayed in a 384-well format are listed in Supplementary Data 4. The raw EC50 values for asynchronous parasites assayed in a 96 or 1536-well format are listed in Supplementary Data 5.
(§5) EC50 values for each strain were compared with those of the corresponding parent strain to determine fold-shift changes and identify resistance. To minimize the cause variance between assays, all comparisons were conducted between strains assayed under identical conditions. A one-way ANOVA followed by a Dunnet's post-test was conducted in GraphPad Prism to identify significant changes between the parent and resistant strain.

[4] = test system: HepG2; assay: Hepatocyte toxicity; assay type: cell-based, human; settings: for Hepatocyte Toxicity: HepG2; for EC50 fold shift compared to asexual stage: Hepatocyte Toxicity: hepatocyte toxicity / 3D7 EC50; for Liver Stage / Hepatocyte Toxicity: toxicity fold shift for the liver stage (hepatocyte toxicity vs liver stage EC50)
From the text: as §1, §2

[5] = test system: hsp90 (D88Y, parent Dd2); assay: Cross-resistance EC50 assay, hsp90; assay type: cell-based; settings: Plasmodium falciparum; SYBR green 72 hour assay; synchronized parasites; 384-well format; strain HSP90 (Dd2 parent)
From the text: as §3, §4, §5

[6] = test system: ATQ-R4 (cytb M133I and L144S, parent 3D7); assay: Cross-resistance EC50 assay, ATQ-R4; assay type: cell-based, Plasmodium falciparum; settings: for EC50: Plasmodium falciparum, 3D7, SYBR green 72 hour assay, asynchronized parasites, 96-well or 1536-well format, ATQ-R4
From the text: as §3, §4, §5

[7] = test system: Dd2; assay: Cross-resistance EC50 assay, Dd2 parent; assay type: cell-based, Plasmodium falciparum; settings: Plasmodium falciparum, DD2, 72 h
From the text: Multidrug resistance alleles, including mutations in P. falciparum chloroquine resistance transporter (pfcrt) and P. falciparum multi-drug resistance transporter 1 (pfmdr1) are very common in field isolates. Therefore, we sought to assess the degree to which pre-existing resistance alleles would contribute to a loss of potency for this diverse collection of small molecule compounds. Fifteen clones derived from three main parent lines were chosen to maximize diversity in mutated pathways and genetic backgrounds, thus representing the variety of resistance seen in the field: 3D7 (ref. [23]), W2 (ref. [24]) or Dd2 (ref. [25]). The 3D7 line originates from the clone of a Netherlands clinical isolate strain[23][26] and is generally considered to be drug sensitive, though it does convey resistance to sulfadoxine. Conversely, W2 (ref. [24], [27]) and Dd2 (ref. [25]) are multi-drug-resistant lines originating from the Indochina III/CDC isolate, which contain point mutations in pfcrt as well as amplifications in pfmdr1 and GTP cyclohydrolase.
as §3, §4, §5

[8] = test system: CYTb-G131S (cytb G131S, parent Dd2); assay: Cross-resistance EC50 assay, CYTb-G131S; assay type: cell-based, Plasmodium falciparum; settings: Plasmodium falciparum; SYBR green 72 hour assay; synchronized parasites; 384-well format; strain CYTb:G131S (Dd2 parent)
From the text: as §3, §4, §5

[9] = read-out: Dd2 (PARENT) Average EC50
[10] = read-out: Dd2 (PARENT) EC50 (µM) Average EC50

SMILES	EC50 ([1]; Plasmodium berghei) [nM]	EC50 fold shift compared to asexual stage: Liver Stage EC50 [1]	EC50 [2] [nM]	EC50 fold shift compared to asexual stage: Stage 5 Gametocyte EC50 [2]	EC50 [3] [µM]	Hepatocyte Toxicity [4] [µM]	EC50 fold shift compared to asexual stage: Hepatocyte Toxicity [4]	Liver Stage / Hepatocyte Toxicity [4]	EC50 [5] [nM]	EC50 [6] [µM]	EC50 [7, 9] [µM]	EC50 [7, 10] [µM]	EC50 [8] [nM]	EC50 [1] [nM]	resistance in ATQ-R5 vs parent ([3]; EC50 fold-shift under the threshold (5-fold))	EC50 fold-shift, ATQ-R4 vs parent ([6]; resistance, parent 3D7) [×]
OC(CNC1CCCCC1)Cn1c2ccc(I)cc2c2cc(I)ccc21 (stereo not shown) [MMV665882]	3060	42.02	323	4.44	0.026	13.25	182.26	4.34	25	0.026	0.05	0.038	46	–	–	–
Brc1ccc(Nc2nc3ccccc3nc2Nc2ccc(Br)cc2)cc1 [MMV007224]	514	2.32	2520	11.35	0.719	1.868	8.41	3.63	247	0.766	0.274	0.714	285	–	–	–
Cc1nc2ccc3ccc(CNc4ccc(C(=O)CC(CCC(=O)O)C(=O)O)cc4)cc3c2c(=O)[nH]1.Cl (stereo not shown) [MMV027634]	> 50000	> 2170	> 12500	> 543	0.13	11.61	504.78	–	39	0.194	0.035	0.124	52	–	–	–
CNCc1ccc2nc(-c3coc(Cc4cc(Cl)ccc4OCC(C)C)n3)[nH]c2c1.Cl.Cl [MMV026596]	6470	18.71	6350	18.35	0.376	13.42	38.79	2.07	373	0.303	0.347	0.158	443	–	–	–
COc1ccccc1CNC(=O)CCn1c(=O)[nH]c2ccsc2c1=O [MMV019066]	318	0.19	> 1250	> 0.7	0.023	> 5	> 3	> 15	15	0.057	0.054	0.00951	149	310	Statistically significant resistance	16
